# Measurements reported in patent publication US7147849B2, “Pharmaceutical formulation” (Bitop AG, priority 1999, dated 2006).
# System: human L540Cy tumors
# Design: species or system SCID mice
# Conditions: mouse, in vivo
smiles,measurement,setting,value
"CC1=NC[C@H](O)[C@@H](C(=O)O)N1 [S,S-β-hydroxyectoine]","tumor development compared with PBS without S,S-β-hydroxyectoine",,faster tumor development
same,average survival rates calculated according to Kaplan-Meier,iv,30.0 (±2) days
